Legend:
[1] = DRUGMATRIX: Calcium Channel Type L, Phenylalkylamine radioligand binding (ligand: [3H] (-)-Desmethoxyverapamil (D-888)); format: cell membranes, Rattus norvegicus, Wistar, Brain, Membrane; conditions: Not Active = under 50% inhibition at 10 µM
[2] = DRUGMATRIX: Imidazoline I2, Central radioligand binding (ligand: [3H] Idazoxan); format: cell membranes, Rattus norvegicus, Wistar, Cerebral cortex, Membrane; conditions: Not Active = under 50% inhibition at 10 µM
[3] = molecular target: T1, Muscarinic acetylcholine receptor M2 (Homo sapiens, UniProt P08172); format: cell membranes, CHO-K1, Membrane; conditions: cho-k1; also: in other assays of this panel Not Active means under 50% inhibition at 10 µM
T1 sequence (P08172 whole entry): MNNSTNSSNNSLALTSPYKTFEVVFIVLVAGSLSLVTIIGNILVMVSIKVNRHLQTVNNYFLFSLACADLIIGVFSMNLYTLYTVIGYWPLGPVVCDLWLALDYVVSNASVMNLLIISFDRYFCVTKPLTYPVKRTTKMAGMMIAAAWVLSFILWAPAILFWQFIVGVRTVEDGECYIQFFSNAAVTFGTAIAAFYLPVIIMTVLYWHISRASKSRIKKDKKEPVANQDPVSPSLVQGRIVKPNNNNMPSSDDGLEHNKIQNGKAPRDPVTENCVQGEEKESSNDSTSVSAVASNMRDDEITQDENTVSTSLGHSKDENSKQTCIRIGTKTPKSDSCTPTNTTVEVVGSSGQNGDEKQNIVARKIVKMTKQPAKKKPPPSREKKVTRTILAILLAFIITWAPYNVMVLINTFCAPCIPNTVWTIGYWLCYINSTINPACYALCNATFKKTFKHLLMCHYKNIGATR

[4] = DRUGMATRIX: Nicotinic Acetylcholine radioligand binding (ligand: [125I] Epibatidine); format: cell membranes, Membrane; conditions: imr-32; Not Active = under 50% inhibition at 10 µM
[5] = DRUGMATRIX: Potassium Channel [KATP] radioligand binding (ligand: [3H] Glyburide); format: cell membranes, Membrane; conditions: hit-t15; Not Active = under 50% inhibition at 10 µM
[6] = molecular target: Tyrosine-protein kinase Fyn (Homo sapiens, UniProt P06241); experiment: biochemical; format: cell-based, Insect cells; conditions: insect cells;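 also: enzymatic inhibition of Fyn kinase activity measured with Poly(Glu:Tyr) as the phosphorylation substrate; in other assays of this panel Not Active means under 50% inhibition at 10 µM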
Tyrosine-protein kinase Fyn, sequence (P06241 whole entry): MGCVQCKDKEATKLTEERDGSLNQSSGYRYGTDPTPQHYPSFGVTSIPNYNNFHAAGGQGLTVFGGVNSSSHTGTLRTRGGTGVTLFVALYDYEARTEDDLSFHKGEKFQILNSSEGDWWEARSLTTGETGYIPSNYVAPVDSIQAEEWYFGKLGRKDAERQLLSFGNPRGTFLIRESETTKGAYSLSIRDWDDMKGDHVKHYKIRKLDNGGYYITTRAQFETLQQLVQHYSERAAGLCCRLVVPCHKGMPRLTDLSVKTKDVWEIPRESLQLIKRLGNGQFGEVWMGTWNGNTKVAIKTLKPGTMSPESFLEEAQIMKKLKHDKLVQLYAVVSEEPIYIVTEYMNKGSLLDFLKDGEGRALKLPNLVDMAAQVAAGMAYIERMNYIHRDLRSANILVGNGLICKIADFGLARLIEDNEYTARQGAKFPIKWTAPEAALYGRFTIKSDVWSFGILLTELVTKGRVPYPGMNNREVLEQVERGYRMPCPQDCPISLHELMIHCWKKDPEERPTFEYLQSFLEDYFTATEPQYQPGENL

CC1(C)O[C@@H]2C[C@H]3[C@@H]4CCC5=CC(=O)C=C[C@]5(C)[C@@]4(F)[C@@H](O)C[C@]3(C)[C@]2(C(=O)CO)O1 [TRIAMCINOLONE ACETONIDE]
Not Active: IC50 [1] | Ki [1] | IC50 [2] | Ki [2] | IC50 [3] | IC50 [4] | Ki [4] | IC50 [5] | Ki [5] | IC50 [6]

NS(=O)(=O)c1cc2c(cc1Cl)NC(C(Cl)Cl)NS2(=O)=O (configuration not stated) [TRICHLORMETHIAZIDE]
Not Active: IC50 [1] | Ki [1] | IC50 [2] | Ki [2] | IC50 [3] | IC50 [4] | Ki [4] | IC50 [5] | Ki [5] | IC50 [6]

Cc1c(C)c2c(c(C)c1O)CCC(C)(COc1ccc(CC3SC(=O)NC3=O)cc1)O2 (configuration not stated) [TROGLITAZONE]
Not Active: IC50 [1] | Ki [1] | IC50 [2] | Ki [2] | IC50 [3] | IC50 [4] | Ki [4] | IC50 [5] | Ki [5] | IC50 [6]

N[C@@H]1[C@H]2CN(c3nc4c(cc3F)c(=O)c(C(=O)O)cn4-c3ccc(F)cc3F)C[C@@H]12 [TROVAFLOXACIN]
Not Active: IC50 [1] | Ki [1] | IC50 [2] | Ki [2] | IC50 [3] | IC50 [4] | Ki [4] | IC50 [5] | Ki [5] | IC50 [6]

N#CC(C#N)=Cc1ccc(O)c(O)c1 [TYRPHOSTIN 23]
Not Active: IC50 [1] | Ki [1] | IC50 [2] | Ki [2] | IC50 [3] | IC50 [4] | Ki [4] | IC50 [5] | Ki [5] | IC50 [6]

CC[C@]1(O)C[C@H]2CN(CCc3c([nH]c4ccccc34)[C@@](C(=O)OC)(c3cc4c(cc3OC)N(C=O)[C@H]3[C@@](O)(C(=O)OC)[C@H](OC(C)=O)[C@]5(CC)C=CCN6CC[C@]43[C@@H]65)C2)C1 [VINCRISTINE]
Not Active: IC50 [1] | Ki [1] | IC50 [2] | Ki [2] | IC50 [3] | IC50 [4] | Ki [4] | IC50 [5] | Ki [5] | IC50 [6]

CCCOc1ccccc1-c1nc2nn[nH]c2c(=O)[nH]1 [ZAPRINAST]
Not Active: IC50 [1] | Ki [1] | IC50 [2] | Ki [2] | IC50 [3] | IC50 [4] | Ki [4] | IC50 [5] | Ki [5] | IC50 [6]

SODIUM NITROPRUSSIDE
Not Active: IC50 [1] | Ki [1] | IC50 [2] | Ki [2] | IC50 [3] | Ki [3] | IC50 [4] | Ki [4] | IC50 [5] | Ki [5] | IC50 [6] | Ki [6]

From ChEMBL document CHEMBL1909046, “DrugMatrix in vitro pharmacology data”
